Counter-ions that a name gives are not always drawn. Like-named read-outs stand apart in the source and are kept apart here.
How the values were obtained:
[1] = type: in vitro ADME, human
Method: (§1) The term "skin flux" intends the rate of transfer of drug across skin as measured by the method of Merritt and Cooper (J Controlled Release (1984) 1:161). The units of flux are preferably μg/cm^2 /hr.
(§2) The following examples further illustrate the invention and its unique characteristics. These examples are not intended to limit the invention in any manner. In the following examples in vitro steady state transdermal flux across human cadaver skin was determined using the method of Merritt and Cooper, supra. Unless otherwise indicated percentages and proportions are by volume.
Formulations of progesterone at varying concentrations were made by mixing progesterone with the indicated ingredients and applied to cadaver skin. The meanings of the abbreviations that appear in the table are: Gly=glycerine; GDO=glycerol dioleate; ML=methyl laurate; OA=oleic acid; GMO=glycerol monooleate.
Additional progesterone systems were formulated and tested as in Example 1. Abbreviations are as in Example 1. Progesterone was present at saturation in system 1 and below saturation in systems 2-6.
Formulations of the hydrophilic drugs oxybutynin HCl and mecamylamine HCl were prepared and tested as in Examples 1 and 2. The formulations of Table 3 containing oxybutynin HCl at 40 mg/ml were saturated and the formulations of Table 4 containing 80 mg/ml of mecamylamine HCl were saturated. All other systems were at drug concentrations below saturation.
[…]. The matrix containing 30% norethindrone acetate was saturated; all others were subsaturated.

[2] = cumulative permeation at 24 hr through skin in vitro; type: in vitro ADME, human; details: for Cumulative Permeation: 24 hr
Method: as §1
as §2, with “volume. […]” for “volume.”
[…]. The matrix containing 8% estradiol was saturated; the others were subsaturated.
The matrix containing 8% estradiol was saturated; the others were subsaturated.

In the case of `CCN(CC)CC#CCOC(=O)C(O)(c1ccccc1)C1CCCCC1` (stereo not shown) [Oxybutyrin, oxybutynin HCl], the Flux ([1]; Table 3 system 1, 5 mg/ml, 40/53/5/2 EtOH/H2O/Gly/GMO, N=3) is reported as 5.6 ± 0.9 μg/cm^2 /hr, the Flux ([1]; Table 3 system 1, 10 mg/ml, 40/53/5/2 EtOH/H2O/Gly/GMO, N=6) is reported as 13.3 ± 2.6 μg/cm^2 /hr and the Flux ([1]; Table 3 system 1, 20 mg/ml, 40/53/5/2 EtOH/H2O/Gly/GMO, N=12) is reported as 16.9 ± 5.2 μg/cm^2 /hr. The Flux ([1]; Table 3 system 1, 40 mg/ml (saturated), 40/53/5/2 EtOH/H2O/Gly/GMO, N=4) was 29.1 ± 11.2 μg/cm^2 /hr, the Flux ([1]; Table 3 system 2, 5 mg/ml, 40/54/5/1 EtOH/H2O/Gly/GMO, N=3) was 8.0 ± 1.4 μg/cm^2 /hr and the Flux ([1]; Table 3 system 2, 10 mg/ml, 40/54/5/1 EtOH/H2O/Gly/GMO, N=6) was 10.1 ± 3.3 μg/cm^2 /hr. The Flux ([1]; Table 3 system 2, 20 mg/ml, 40/54/5/1 EtOH/H2O/Gly/GMO, N=12) was 17.5 ± 5.1 μg/cm^2 /hr, the Flux ([1]; Table 3 system 2, 40 mg/ml (saturated), 40/54/5/1 EtOH/H2O/Gly/GMO, N=5) was 38.8 ± 18.9 μg/cm^2 /hr and the Flux ([1]; Table 3 system 3, 5 mg/ml, 30/63/5/2 EtOH/H2O/Gly/GMO, N=3) was 2.2 ± 0.2 μg/cm^2 /hr. It also gave a Flux ([1]; Table 3 system 3, 10 mg/ml, 30/63/5/2 EtOH/H2O/Gly/GMO, N=9) of 8.3 ± 3.8 μg/cm^2 /hr, a Flux ([1]; Table 3 system 3, 20 mg/ml, 30/63/5/2 EtOH/H2O/Gly/GMO, N=12) of 14.8 ± 6.1 μg/cm^2 /hr and a Flux ([1]; Table 3 system 3, 40 mg/ml (saturated), 30/63/5/2 EtOH/H2O/Gly/GMO, N=6) of 23.9 ± 10.0 μg/cm^2 /hr. For the same molecule, the Flux ([1]; Table 3 system 4, 5 mg/ml, 30/64/5/1 EtOH/H2O/Gly/GMO, N=3) was 1.7 ± 0.3 μg/cm^2 /hr, the Flux ([1]; Table 3 system 4, 10 mg/ml, 30/64/5/1 EtOH/H2O/Gly/GMO, N=6) was 5.4 ± 2.5 μg/cm^2 /hr and the Flux ([1]; Table 3 system 4, 20 mg/ml, 30/64/5/1 EtOH/H2O/Gly/GMO, N=15) was 13.6 ± 5.2 μg/cm^2 /hr. It also gave a Flux ([1]; Table 3 system 4, 40 mg/ml (saturated), 30/64/5/1 EtOH/H2O/Gly/GMO, N=6) of 27.5 ± 13.1 μg/cm^2 /hr.

In the case of `C[C@]12CC[C@@H]3c4ccc(O)cc4CC[C@H]3[C@@H]1CC[C@@H]2O` [estradiol], the “Cumulative Permeation” value ([2]; Table 7, 1% estradiol, acrylic adhesive matrix with 20% sorbitan monooleate, S.D. 1.40) is reported as 11.36 μg/cm^2, the “Cumulative Permeation” value ([2]; Table 7, 2% estradiol, acrylic adhesive matrix with 20% sorbitan monooleate, S.D. 6.24) is reported as 28.31 μg/cm^2 and the “Cumulative Permeation” value ([2]; Table 7, 3% estradiol, acrylic adhesive matrix with 20% sorbitan monooleate, S.D. 6.64) is reported as 40.88 μg/cm^2. For the same molecule, the “Cumulative Permeation” value ([2]; Table 7, 4% estradiol, acrylic adhesive matrix with 20% sorbitan monooleate, S.D. 4.46) was 44.94 μg/cm^2, the “Cumulative Permeation” value ([2]; Table 7, 6% estradiol, acrylic adhesive matrix with 20% sorbitan monooleate, S.D. 3.03) was 22.56 μg/cm^2 and the “Cumulative Permeation” value ([2]; Table 7, 8% estradiol (saturated), acrylic adhesive matrix with 20% sorbitan monooleate, S.D. 5.25) was 12.93 μg/cm^2. For the same molecule, the “Cumulative Permeation” value ([2]; Table 8, 1% estradiol, acrylic adhesive matrix without permeation enhancer, S.D. 1.84) was 9.33 μg/cm^2, the “Cumulative Permeation” value ([2]; Table 8, 2% estradiol, acrylic adhesive matrix without permeation enhancer, S.D. 1.42) was 16.55 μg/cm^2 and the “Cumulative Permeation” value ([2]; Table 8, 3% estradiol, acrylic adhesive matrix without permeation enhancer, S.D. 2.16) was 21.21 μg/cm^2. For the same molecule, the “Cumulative Permeation” value ([2]; Table 8, 4% estradiol, acrylic adhesive matrix without permeation enhancer, S.D. 0.64) was 16.11 μg/cm^2, the “Cumulative Permeation” value ([2]; Table 8, 6% estradiol, acrylic adhesive matrix without permeation enhancer, S.D. 0.27) was 18.42 μg/cm^2 and the “Cumulative Permeation” value ([2]; Table 8, 8% estradiol (saturated), acrylic adhesive matrix without permeation enhancer, S.D. 3.93) was 9.20 μg/cm^2. For the same molecule, the “maximum permeation versus estradiol concentration” value ([2]; matrices with sorbitan monolaurate, ointments EtOH/H2O/Gly/GMO/ML 20/60/5/7.5/7.5) was “maximum permeation was observed at estradiol concentrations below saturation”.

With `CC(C)NCC(O)COc1cccc2[nH]ccc12` (stereo not shown) [pindolol free base, pindolol] the “dependence of flux on drug concentration” value ([1]; ointment and solid matrix systems) was “classic Fickian dependence of flux on drug concentration”.

`CC(=O)[C@H]1CC[C@H]2[C@@H]3CCC4=CC(=O)CC[C@]4(C)[C@H]3CC[C@]12C` [progesterone] showed a Flux ([1]; Table 1 system 1, 75.0 mg/ml (saturated), 60/22.5/10/2.5/2.5/2.5 EtOH/H2O/Gly/GDO/ML/OA, N=8) of 2.12 ± 0.47 μg/cm^2 /hr, a Flux ([1]; Table 1 system 2, 50 mg/ml, 60/22.5/10/2.5/2.5/2.5 EtOH/H2O/Gly/GDO/ML/OA, N=18) of 4.51 ± 1.37 μg/cm^2 /hr and a Flux ([1]; Table 1 system 3, 25 mg/ml, 60/22.5/10/2.5/2.5/2.5 EtOH/H2O/Gly/GDO/ML/OA, N=3) of 5.52 ± 1.38 μg/cm^2 /hr. It also gave a Flux ([1]; Table 1 system 4, 75 mg/ml (saturated), 60/22.5/10/2.5/2.5/2.5 EtOH/H2O/Gly/GMO/ML/OA, N=8) of 3.35 ± 2.18 μg/cm^2 /hr, a Flux ([1]; Table 1 system 5, 50 mg/ml, 60/22.5/10/2.5/2.5/2.5 EtOH/H2O/Gly/GMO/ML/OA, N=18) of 7.63 ± 3.00 μg/cm^2 /hr and a Flux ([1]; Table 1 system 6, 37.5 mg/ml, 60/22.5/10/2.5/2.5/2.5 EtOH/H2O/Gly/GMO/ML/OA, N=6) of 8.18 ± 0.90 μg/cm^2 /hr. The Flux ([1]; Table 1 system 7, 25 mg/ml, 60/22.5/10/2.5/2.5/2.5 EtOH/H2O/Gly/GMO/ML/OA, N=18) was 6.37 ± 1.88 μg/cm^2 /hr, the Flux ([1]; Table 1 system 8, 10 mg/ml, 60/22.5/10/2.5/2.5/2.5 EtOH/H2O/Gly/GMO/ML/OA, N=3) was 1.84 ± 0.33 μg/cm^2 /hr and the “flux at subsaturated concentrations versus at saturation” value ([1]; Table 1 systems, except 8) was “significantly greater”. The Flux ([1]; Table 2 system 1, 50 mg/ml (saturated), 60/22.5/10/2.5/2.5/2.5 EtOH/H2O/Gly/GDO/ML/OA, N=12) was 6.01 ± 1.73 μg/cm^2 /hr, the Flux ([1]; Table 2 system 2, 30 mg/ml, 60/28/10/1/1 EtOH/H2O/Gly/GMO/ML, N=3) was 13.03 ± 3.35 μg/cm^2 /hr and the Flux ([1]; Table 2 system 3, 25 mg/ml, 60/28/10/1/1 EtOH/H2O/Gly/GMO/ML, N=3) was 12.98 ± 2.06 μg/cm^2 /hr. For the same molecule, the Flux ([1]; Table 2 system 4, 20 mg/ml, 60/28/10/1/1 EtOH/H2O/Gly/GMO/ML, N=9) was 15.89 ± 6.81 μg/cm^2 /hr, the Flux ([1]; Table 2 system 5, 15 mg/ml, 60/28/10/1/1 EtOH/H2O/Gly/GMO/ML, N=12) was 13.13 ± 1.87 μg/cm^2 /hr and the Flux ([1]; Table 2 system 6, 10 mg/ml, 60/28/10/1/1/1 EtOH/H2O/Gly/GMO/ML, N=5) was 11.13 ± 1.98 μg/cm^2 /hr. For the same molecule, the “fluxes at concentrations below saturation versus at saturation” value ([1]; Table 2 systems) was “significantly greater than at saturation”.

From patent US5164190A, “Subsaturated transdermal drug delivery device exhibiting enhanced drug flux” (Theratech, Inc., priority 1990, dated 1992)
